Experimental data as given in the NIST ThermoML archive (doi:10.1021/acs.jced.9b00507).
± gives the expanded uncertainty stated by the source.

Test: xn = mol fraction of the nth substance listed
Settings: 100 kPa, Liquid; for mass density: Vibrating tube method; for viscosity: Concentric cylinders viscometry

CCCCCCn1cc[n+](C)c1.O=[N+]([O-])[O-] [1-hexyl-3-methylimidazolium nitrate] + CCCCCCO
Settings	mass density, 308.15 K [kg/m3]	mass density, 313.15 K [kg/m3]	mass density, 318.15 K [kg/m3]	mass density, 323.15 K [kg/m3]	viscosity, 313.15 K [mPa·s]	viscosity, 318.15 K [mPa·s]	viscosity, 323.15 K [mPa·s]
x1 = 0.0816	847.7 ± 1.3	843.9 ± 1.3	840.1 ± 1.3	836.2 ± 1.3	3.92 ± 0.32	3.2 ± 0.26	2.63 ± 0.21
x1 = 0.1604	882.4 ± 1.3	878.5 ± 1.3	874.7 ± 1.3	870.7 ± 1.3	5.11 ± 0.41	3.92 ± 0.32	3.1 ± 0.25
x1 = 0.2391	913.8 ± 1.3	909.9 ± 1.3	906.1 ± 1.3	902.2 ± 1.3	6.87 ± 0.55	5.06 ± 0.41	3.84 ± 0.31
x1 = 0.3502	953.4 ± 1.2	949.6 ± 1.2	945.8 ± 1.2	942 ± 1.2	10.64 ± 0.86	7.53 ± 0.61	5.55 ± 0.45
x1 = 0.4409	982.3 ± 1.2	978.5 ± 1.2	974.8 ± 1.2	971 ± 1.2	15.42 ± 1.2	10.79 ± 0.87	8.02 ± 0.65
x1 = 0.5592	1016.1 ± 1.2	1012.3 ± 1.2	1008.7 ± 1.2	1005 ± 1.2	25.7 ± 2.1	18.71 ± 1.5	13.49 ± 1.1
x1 = 0.6508	1039.6 ± 1.2	1035.8 ± 1.2	1032.2 ± 1.2	1028.7 ± 1.2	40.74 ± 3.3	29.04 ± 2.4	21.63 ± 1.8
x1 = 0.7395	1060.2 ± 1.2	1056.5 ± 1.2	1053.1 ± 1.2	1049.5 ± 1.2	63.17 ± 5.1	46.03 ± 3.7	36.13 ± 2.9
x1 = 0.8502	1083.5 ± 1.3	1079.9 ± 1.3	1076.5 ± 1.3	1073.1 ± 1.3	107.2 ± 8.7	78.87 ± 6.4	63.1 ± 5.1
x1 = 0.9391	1100.4 ± 1.4	1096.9 ± 1.4	1093.7 ± 1.4	1090.4 ± 1.4	151.34 ± 12	114.4 ± 9.3	91.12 ± 7.4
x1 = 1	1111.1 ± 1.4	1107.8 ± 1.4	1104.7 ± 1.4	1101.6 ± 1.4	185.67 ± 15	140.18 ± 11	110.94 ± 9
